In patent US11998539B2, “Substituted aminoquinolones as DGKalpha inhibitors for immune activation” (Bayer Aktiengesellschaft, priority 2019, dated 2024):

Target: DGKα (Homo sapiens (Human), UniProt P23743)
Experiment: Human DGKα kinase activity inhibition assay (ADP-Glo)
Assay type: biochemical
Conditions: recombinant full-length human DGKα, 55 μM ATP, 7 μM 1,2-dioleoyl-sn-glycerol, read-out: IC50 values of examples in in vitro human DGKa kinase activity inhibition assays
How it was run: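 Activity was measured as ADP production, detected by luciferase luminescence after removal of unused ATP. The enzyme was baculovirus-expressed full-length human DGKα with a C-terminal FLAG tag. The substrate was 1,2-dioleoyl-sn-glycerol in detergent micelles, and compounds came from 100× DMSO solutions.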

Sequence of DGKα (P23743 other isoform, or with tags, fused parts or gaps): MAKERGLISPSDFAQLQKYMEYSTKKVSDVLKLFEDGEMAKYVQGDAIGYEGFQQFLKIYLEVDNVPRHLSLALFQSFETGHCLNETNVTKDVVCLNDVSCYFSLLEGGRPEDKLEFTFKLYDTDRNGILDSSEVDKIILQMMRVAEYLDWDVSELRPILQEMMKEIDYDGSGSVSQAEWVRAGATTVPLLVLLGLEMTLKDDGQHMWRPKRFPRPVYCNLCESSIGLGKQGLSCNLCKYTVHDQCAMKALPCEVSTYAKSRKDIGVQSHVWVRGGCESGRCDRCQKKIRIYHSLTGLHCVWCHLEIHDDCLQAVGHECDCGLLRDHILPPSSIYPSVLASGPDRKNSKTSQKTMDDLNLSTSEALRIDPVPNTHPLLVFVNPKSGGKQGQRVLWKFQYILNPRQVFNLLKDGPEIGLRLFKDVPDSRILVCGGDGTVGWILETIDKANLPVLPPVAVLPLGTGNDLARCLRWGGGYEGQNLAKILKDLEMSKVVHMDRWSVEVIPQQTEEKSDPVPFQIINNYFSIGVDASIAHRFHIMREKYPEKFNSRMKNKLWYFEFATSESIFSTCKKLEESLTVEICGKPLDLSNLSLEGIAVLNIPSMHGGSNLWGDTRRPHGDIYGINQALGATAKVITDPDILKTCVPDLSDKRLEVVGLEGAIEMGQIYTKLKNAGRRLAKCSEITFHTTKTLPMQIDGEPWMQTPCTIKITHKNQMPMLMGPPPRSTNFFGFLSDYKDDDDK

## Cn1c(=O)c(C#N)c(N2CCC(c3ccc(OC(F)(F)F)cc3)CC2)c2ccccc21 [Example 43, 1-methyl-2-oxo-4-{4-[4-(trifluoromethoxy)phenyl]piperidin-1-yl}-1,2-dihydroquinoline-3-carbonitrile]
  IC50: 11 nM

## Cn1c(=O)c(C#N)c(N2CCC(c3nc4ccc(C5COC5)cc4o3)CC2)c2ccccc21 [Example 388, 1-methyl-4-{4-[6-(oxetan-3-yl)-1,3-benzoxazol-2-yl]piperidin-1-yl}-2-oxo-1,2-dihydroquinoline-3-carbonitrile]
  IC50: 33 nM

## Cc1ccc2oc(C3(C)CCN(c4c(C#N)c(=O)n(C)c5cc(C(F)(F)F)ccc45)CC3)nc2c1 [Example 290, 1-methyl-4-[4-methyl-4-(5-methyl-1,3-benzoxazol-2-yl)piperidin-1-yl]-2-oxo-7-(trifluoromethyl)-1,2-dihydroquinoline-3-carbonitrile]
  IC50: 10 nM

## Cn1c(=O)c(C#N)c(N2CCC(c3nc4ccc(C5CC5)cc4o3)CC2)c2ccccc21 [Example 395, 4-[4-(6-cyclopropyl-1,3-benzoxazol-2-yl)piperidin-1-yl]-1-methyl-2-oxo-1,2-dihydroquinoline-3-carbonitrile]
  IC50: 2.4 nM

## Cc1ccc2oc(C3(C)CCN(c4c(C#N)c(=O)n(C)c5ccc(C#N)cc45)CC3)nc2c1 [Example 207, 1-methyl-4-[4-methyl-4-(5-methyl-1,3-benzoxazol-2-yl)piperidin-1-yl]-2-oxo-1,2-dihydroquinoline-3,6-dicarbonitrile]
  IC50: 2.7 nM

## Cn1c(=O)c(C#N)c(N2CCC(c3cccc4ccoc34)CC2)c2ccccc21 [Example 73]
  IC50: 33 nM

## Cc1ccccc1-c1noc(C2CCN(c3c(C#N)c(=O)n(C)c4ccccc34)CC2)n1 [Example 348, 1-methyl-4-{4-[3-(2-methylphenyl)-1,2,4-oxadiazol-5-yl]piperidin-1-yl}-2-oxo-1,2-dihydroquinoline-3-carbonitrile]
  IC50: 7.9 nM

## CCCOc1cccc2c(N3CCC(C)(c4nc5cc(C)ccc5o4)CC3)c(C#N)c(=O)n(C)c12 [Example 273, 1-methyl-4-[4-methyl-4-(5-methyl-1,3-benzoxazol-2-yl)piperidin-1-yl]-2-oxo-8-propoxy-1,2-dihydroquinoline-3-carbonitrile]
  IC50: 119 nM

## Cc1ccc2oc(C3(C)CCN(c4c(C#N)c(=O)n(C)c5cc(OCC6(O)CC6)ccc45)CC3)nc2c1 [Example 239, 7-[(1-hydroxycyclopropyl)methoxy]-1-methyl-4-[4-methyl-4-(5-methyl-1,3-benzoxazol-2-yl)piperidin-1-yl]-2-oxo-1,2-dihydroquinoline-3-carbonitrile]
  IC50: 0.6 nM

## Cc1ccc2oc(C3CCN(c4c(C#N)c(=O)n(C)c5cc(O)c(Br)cc45)CC3)nc2c1 [Example 422, 6-bromo-7-hydroxy-1-methyl-4-[4-(5-methyl-1,3-benzoxazol-2-yl)piperidin-1-yl]-2-oxo-1,2-dihydroquinoline-3-carbonitrile]
  IC50: 0.7 nM

## Cn1c(=O)c(C#N)c(N2CCC(C)(c3nc4ccccc4o3)CC2)c2cc(F)ccc21 [Example 216, 4-[4-(1,3-benzoxazol-2-yl)-4-methylpiperidin-1-yl]-6-fluoro-1-methyl-2-oxo-1,2-dihydroquinoline-3-carbonitrile]
  IC50: 0.4 nM

## Cn1c(=O)c(C#N)c(N2CCC(c3ccccc3F)CC2)c2ccccc21 [Example 60, 4-[4-(2-fluorophenyl)piperidin-1-yl]-1-methyl-2-oxo-1,2-dihydroquinoline-3-carbonitrile]
  IC50: 33 nM

## Cn1c(C2CCN(c3c(C#N)c(=O)n(C)c4ccccc34)CC2)nc2ccccc21 [Example 147, 1-methyl-4-[4-(1-methyl-1H-benzimidazol-2-yl)piperidin-1-yl]-2-oxo-1,2-dihydroquinoline-3-carbonitrile]
  IC50: 358 nM

## Cc1ccc2c(c1)c(N1CCC(C)(c3nc4ccccc4o3)CC1)c(C(N)=O)c(=O)n2C [Example 195, 4-[4-(1,3-benzoxazol-2-yl)-4-methylpiperidin-1-yl]-1,6-dimethyl-2-oxo-1,2-dihydroquinoline-3-carboxamide]
  IC50: 1.5 nM

## Cn1c(=O)c(C#N)c(N2CCC(C)(c3nc4cc(C(C)(C)C)ccc4o3)CC2)c2ccccc21 [Example 24, 4-[4-(5-tert-butyl-1,3-benzoxazol-2-yl)-4-methylpiperidin-1-yl]-1-methyl-2-oxo-1,2-dihydroquinoline-3-carbonitrile]
  IC50: 45 nM

## COc1cc2c(cc1C)c(N1CCC(c3nc4cc(C)ccc4o3)CC1)c(C#N)c(=O)n2C [Example 419, 7-methoxy-1,6-dimethyl-4-[4-(5-methyl-1,3-benzoxazol-2-yl)piperidin-1-yl]-2-oxo-1,2-dihydroquinoline-3-carbonitrile]
  IC50: 4.6 nM

## Cc1ccc2oc(C3CCN(c4c(C#N)c(=O)n(C)c5c(Cl)cccc45)CC3)nc2c1 [Example 232, 8-chloro-1-methyl-4-[4-(5-methyl-1,3-benzoxazol-2-yl)piperidin-1-yl]-2-oxo-1,2-dihydroquinoline-3-carbonitrile]
  IC50: 163 nM

## Cc1ccc2oc(C3CCN(c4c(C#N)c(=O)n(C)c5cc(OCC6CCOC6)c(Cl)cc45)CC3)nc2c1 (racemic) [Example 572, (rac)-6-chloro-1-methyl-4-[4-(5-methyl-1,3-benzoxazol-2-yl)piperidin-1-yl]-2-oxo-7-[(oxolan-3-yl)methoxy]-1,2-dihydroquinoline-3-carbonitrile]
  IC50: 1.5 nM

## Cn1c(=O)c(C#N)c(N2CCC(C)(c3nc4ccccc4o3)CC2)c2cccc(Br)c21 [Example 156, 4-[4-(1,3-benzoxazol-2-yl)-4-methylpiperidin-1-yl]-8-bromo-1-methyl-2-oxo-1,2-dihydroquinoline-3-carbonitrile]
  IC50: 182 nM

## COc1ccc(C2CCN(c3c(C#N)c(=O)n(C)c4ccc(C5=CCOCC5)cc34)CC2)cc1 [Example 180, 6-(3,6-dihydro-2H-pyran-4-yl)-4-[4-(4-methoxyphenyl)piperidin-1-yl]-1-methyl-2-oxo-1,2-dihydroquinoline-3-carbonitrile]
  IC50: 1510 nM

## Cc1ccc2c(c1)c(N1CCCC(c3nc4ccccc4o3)CC1)c(C(N)=O)c(=O)n2C (stereo not shown) [Example 205, 4-[4-(1,3-benzoxazol-2-yl)azepan-1-yl]-1,6-dimethyl-2-oxo-1,2-dihydroquinoline-3-carboxamide]
  IC50: 4.8 nM

## Cc1ccc2oc(C3CCN(c4c(C(N)=O)c(=O)n(C)c5ccc(C(N)=O)cc45)CC3)nc2c1 [Example 499, 1-methyl-4-[4-(5-methyl-1,3-benzoxazol-2-yl)piperidin-1-yl]-2-oxo-1,2-dihydroquinoline-3,6-dicarboxamide]
  IC50: 74 nM

## Cc1ccc2oc(C3(C)CCN(c4c(C(N)=O)c(=O)n(C)c5ccccc45)CC3)nc2c1 [Example 302, 1-methyl-4-[4-methyl-4-(5-methyl-1,3-benzoxazol-2-yl)piperidin-1-yl]-2-oxo-1,2-dihydroquinoline-3-carboxamide]
  IC50: 1.1 nM

## Cn1c(=O)c(C#N)c(N2CCC(c3ccccc3)CC2)c2ccc(OC3CC3)cc21 [Example 264, 7-(cyclopropyloxy)-1-methyl-2-oxo-4-(4-phenylpiperidin-1-yl)-1,2-dihydroquinoline-3-carbonitrile]
  IC50: 49 nM

## CCCOc1ccc(C2CCN(c3c(C#N)c(=O)n(C)c4ccccc34)CC2)cc1 [Example 42, 1-methyl-2-oxo-4-[4-(4-propoxyphenyl)piperidin-1-yl]-1,2-dihydroquinoline-3-carbonitrile]
  IC50: 11 nM
